Data taken from patent US12473294B2, “Selective modulators of mutant LRRK2 proteolysis and associated methods of use” (Arvinas Operations, Inc., priority 2020, dated 2025).

Assays:
G2019S LRRK2 = biological target: T1, G2019S LRRK2 (Homo sapiens, UniProt Q5S007, G2019S); assay: LRRK2 degradation HiBit assay, G2019S LRRK2 tagged with a HiBit tag expressed in HEK293 cells; format: cell-based; conditions: 24 hours compound incubation; for Dmax: HEK293, HEK293 cells; for DC50: HEK293 cells
T1 construct: expressed in transfected cells; host or cells: HEK293 (ATCC CRL-1573)
Method in brief: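 HEK293 cells were transiently transfected with G2019S LRRK2 carrying a C-terminal HiBit tag (ubiquitin promoter) plus firefly luciferase, then exposed to compound for 24 h at 37 °C. Dual luminescence gave the HiBit/luciferase ratio ×1000, normalised to DMSO. DC50 and Dmax were fitted per plate.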

wildtype LRRK2 = biological target: T2, wildtype LRRK2 (Homo sapiens, UniProt Q5S007); assay: LRRK2 degradation HiBit assay, wildtype LRRK2 tagged with a HiBit tag in HEK293 cells; format: cell-based; conditions: 24 hours compound incubation; for Dmax: read-out: ** WT Dmax (%); for DC50: read-out: *WT DC50
T2 construct: endogenous in cells; host or cells: HEK293 with HiBit knocked in at the 3' end of the endogenous LRRK2 gene, stably expressing firefly luciferase
Method in brief: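 HEK293 cells transiently co-transfected with ubiquitin-promoter-driven C-terminally HiBit-tagged wildtype LRRK2 plus firefly luciferase, then treated with compound for 24 h at 37° C. HiBit/luciferase ratio ×1000 normalized to DMSO median; DC50 and Dmax fitted per plate, six replicates across two days.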

T2 sequence (Q5S007 whole entry): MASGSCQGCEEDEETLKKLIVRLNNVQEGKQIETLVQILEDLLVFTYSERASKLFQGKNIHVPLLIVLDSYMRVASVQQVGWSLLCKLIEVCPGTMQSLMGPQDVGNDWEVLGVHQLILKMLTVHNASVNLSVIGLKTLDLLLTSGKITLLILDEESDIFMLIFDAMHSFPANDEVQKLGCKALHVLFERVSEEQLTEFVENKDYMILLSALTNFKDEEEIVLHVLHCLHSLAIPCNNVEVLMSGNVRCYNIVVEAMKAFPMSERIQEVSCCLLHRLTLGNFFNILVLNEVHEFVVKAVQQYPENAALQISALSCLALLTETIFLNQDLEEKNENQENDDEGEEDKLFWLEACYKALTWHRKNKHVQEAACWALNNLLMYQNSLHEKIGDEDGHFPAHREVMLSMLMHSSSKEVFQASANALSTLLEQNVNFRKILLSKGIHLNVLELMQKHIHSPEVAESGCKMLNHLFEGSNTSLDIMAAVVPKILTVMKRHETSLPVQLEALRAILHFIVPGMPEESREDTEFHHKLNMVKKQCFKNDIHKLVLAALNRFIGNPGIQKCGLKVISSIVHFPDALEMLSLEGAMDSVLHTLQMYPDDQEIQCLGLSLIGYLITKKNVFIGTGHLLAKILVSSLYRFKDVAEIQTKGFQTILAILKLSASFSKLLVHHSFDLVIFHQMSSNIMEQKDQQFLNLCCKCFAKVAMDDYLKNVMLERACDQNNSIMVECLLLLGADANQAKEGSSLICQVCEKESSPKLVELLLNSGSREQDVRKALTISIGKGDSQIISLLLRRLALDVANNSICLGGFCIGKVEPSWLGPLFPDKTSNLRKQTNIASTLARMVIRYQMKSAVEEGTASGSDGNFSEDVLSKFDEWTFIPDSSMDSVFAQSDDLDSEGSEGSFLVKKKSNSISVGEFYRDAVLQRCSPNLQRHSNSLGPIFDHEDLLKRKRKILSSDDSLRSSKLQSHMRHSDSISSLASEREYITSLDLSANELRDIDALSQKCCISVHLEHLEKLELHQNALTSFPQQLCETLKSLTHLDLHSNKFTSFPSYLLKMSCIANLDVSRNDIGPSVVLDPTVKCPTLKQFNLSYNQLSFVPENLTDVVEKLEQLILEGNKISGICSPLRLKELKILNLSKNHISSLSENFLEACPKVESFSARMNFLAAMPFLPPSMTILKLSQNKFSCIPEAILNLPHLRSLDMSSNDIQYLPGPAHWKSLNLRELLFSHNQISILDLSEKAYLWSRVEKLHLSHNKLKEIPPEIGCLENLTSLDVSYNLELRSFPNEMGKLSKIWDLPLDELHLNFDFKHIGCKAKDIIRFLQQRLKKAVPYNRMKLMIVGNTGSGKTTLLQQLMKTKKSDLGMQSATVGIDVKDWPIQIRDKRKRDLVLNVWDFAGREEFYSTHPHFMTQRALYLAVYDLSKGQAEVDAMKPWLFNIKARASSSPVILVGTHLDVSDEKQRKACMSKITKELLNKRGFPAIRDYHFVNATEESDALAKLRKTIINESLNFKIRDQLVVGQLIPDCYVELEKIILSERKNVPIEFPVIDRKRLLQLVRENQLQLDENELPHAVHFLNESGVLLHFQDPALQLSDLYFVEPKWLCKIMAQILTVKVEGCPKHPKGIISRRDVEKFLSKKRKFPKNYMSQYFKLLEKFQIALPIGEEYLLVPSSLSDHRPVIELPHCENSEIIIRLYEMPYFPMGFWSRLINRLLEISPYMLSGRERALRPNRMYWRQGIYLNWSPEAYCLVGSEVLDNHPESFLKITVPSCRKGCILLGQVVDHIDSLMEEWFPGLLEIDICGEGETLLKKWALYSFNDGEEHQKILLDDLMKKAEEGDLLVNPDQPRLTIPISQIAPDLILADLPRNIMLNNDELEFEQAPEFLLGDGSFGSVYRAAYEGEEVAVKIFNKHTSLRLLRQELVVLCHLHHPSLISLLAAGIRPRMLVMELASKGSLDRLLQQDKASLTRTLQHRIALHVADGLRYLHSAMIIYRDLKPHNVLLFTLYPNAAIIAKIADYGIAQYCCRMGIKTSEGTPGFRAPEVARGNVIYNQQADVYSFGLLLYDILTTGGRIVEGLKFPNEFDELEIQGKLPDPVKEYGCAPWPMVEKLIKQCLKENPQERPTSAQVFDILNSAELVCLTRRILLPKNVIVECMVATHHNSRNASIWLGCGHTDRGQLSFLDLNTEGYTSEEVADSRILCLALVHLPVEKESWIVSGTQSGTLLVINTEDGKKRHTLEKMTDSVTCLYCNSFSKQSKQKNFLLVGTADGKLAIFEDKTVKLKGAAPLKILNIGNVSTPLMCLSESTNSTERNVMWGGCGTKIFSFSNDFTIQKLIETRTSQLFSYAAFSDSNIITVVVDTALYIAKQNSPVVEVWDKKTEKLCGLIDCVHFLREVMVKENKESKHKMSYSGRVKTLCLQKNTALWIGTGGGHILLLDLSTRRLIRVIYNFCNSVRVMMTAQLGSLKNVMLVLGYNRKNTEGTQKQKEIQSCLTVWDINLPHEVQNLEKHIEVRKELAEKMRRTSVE
T1 sequence (Q5S007 whole entry G2019S): as the sequence (Q5S007 whole entry) above, with G2019S counted along it

SMILES: CC1=C(C(=O)Nc2ccc3[nH]nc(-c4ccnc(N5CCN(CCN6CCN(CC7CCN(c8ccc9c(c8)C(=O)N(C8CCC(=O)NC8=O)C9=O)CC7)CC6)[C@@H](C)C5)c4)c3c2)C(C)(C)n2nnnc2N1C (stereo partly drawn) [compound 30, N-(3-{2-[(3S)-4-{2-[4-({1-[2-(2,6-dioxopiperidin-3-yl)-1,3-dioxo-2,3-dihydro-1H-isoindol-5-yl]piperidin-4-yl}methyl)piperazin-1-yl]ethyl}-3-methylpiperazin-1-yl]pyridin-4-yl}-1H-indazol-5-yl)-4,5,7,7-tetramethyl-4H,7H-[1,2,3,4]tetrazolo[1,5-a]pyrimidine-6-carboxamide]
- Dmax (G2019S LRRK2): < 50%
- DC50 (G2019S LRRK2): 0.01 to 0.05 µM
- Dmax (wildtype LRRK2): < 50%
- DC50 (wildtype LRRK2): ≥ 0.1 µM

SMILES: CC1=C(C(=O)Nc2ccc3[nH]nc(-c4ccnc(N5CCN(CCN6CCC(CN7CCN(c8ccc9c(c8)C(=O)N(C8CCC(=O)NC8=O)C9=O)CC7)CC6)[C@@H](C)C5)c4)c3c2)[C@H](C)n2nnnc2N1C (stereo partly drawn) [compound 31, (7S)-N-(3-{2-[(3S)-4-{2-[4-({4-[2-(2,6-dioxopiperidin-3-yl)-1,3-dioxo-2,3-dihydro-1H-isoindol-5-yl]piperazin-1-yl}methyl)piperidin-1-yl]ethyl}-3-methylpiperazin-1-yl]pyridin-4-yl}-1H-indazol-5-yl)-4,5,7-trimethyl-4H,7H-[1,2,3,4]tetrazolo[1,5-a]pyrimidine-6-carboxamide]
- Dmax (G2019S LRRK2): < 50%
- DC50 (G2019S LRRK2): ≥ 0.1 µM
- DC50 (wildtype LRRK2): ≥ 0.1 µM

SMILES: CC1=C(C(=O)Nc2ccc3[nH]nc(-c4ccnc(N5CCO[C@@H](CN6CCN(CC7CCN(c8ccc9c(c8)C(=O)N(C8CCC(=O)NC8=O)C9=O)CC7)CC6)C5)c4)c3c2)C(C)(C)n2nnnc2N1C (stereo partly drawn) [compound 32, N-(3-{2-[(2S)-2-{[4-({1-[2-(2,6-dioxopiperidin-3-yl)-1,3-dioxo-2,3-dihydro-1H-isoindol-5-yl]piperidin-4-yl}methyl)piperazin-1-yl]methyl}morpholin-4-yl]pyridin-4-yl}-1H-indazol-5-yl)-4,5,7,7-tetramethyl-4H,7H-[1,2,3,4]tetrazolo[1,5-a]pyrimidine-6-carboxamide]
- Dmax (G2019S LRRK2): < 50%
- DC50 (G2019S LRRK2): 0.01 to 0.05 µM
- DC50 (wildtype LRRK2): ≥ 0.1 µM

SMILES: CC1=C(C(=O)Nc2ccc3[nH]nc(-c4ccnc(N5CCN(CCN6CCC(CN7CCN(c8ccc9c(c8)C(=O)N(C8CCC(=O)NC8=O)C9=O)CC7)CC6)CC5)c4)c3c2)C(C)(C)n2nnnc2N1C (centres unmarked) [compound 33, N-{3-[2-(4-{2-[4-({4-[2-(2,6-dioxopiperidin-3-yl)-1,3-dioxo-2,3-dihydro-1H-isoindol-5-yl]piperazin-1-yl}methyl)piperidin-1-yl]ethyl}piperazin-1-yl)pyridin-4-yl]-1H-indazol-5-yl}-4,5,7,7-tetramethyl-4H,7H-[1,2,3,4]tetrazolo[1,5-a]pyrimidine-6-carboxamide]
- Dmax (G2019S LRRK2): < 50%
- DC50 (G2019S LRRK2): ≥ 0.1 µM
- Dmax (wildtype LRRK2): < 50%
- DC50 (wildtype LRRK2): ≥ 0.1 µM

SMILES: CC1=C(C(=O)Nc2ccc3[nH]nc(-c4ccnc(N5CCN(CC6CCN(CC7CCN(c8ccc9c(c8)C(=O)N(C8CCC(=O)NC8=O)C9=O)CC7)CC6)[C@@H](C)C5)c4)c3c2)C(C)(C)n2nnnc2N1C (stereo partly drawn) [compound 34, N-(3-{2-[(3S)-4-{[1-({1-[2-(2,6-dioxopiperidin-3-yl)-1,3-dioxo-2,3-dihydro-1H-isoindol-5-yl]piperidin-4-yl}methyl)piperidin-4-yl]methyl}-3-methylpiperazin-1-yl]pyridin-4-yl}-1H-indazol-5-yl)-4,5,7,7-tetramethyl-4H,7H-[1,2,3,4]tetrazolo[1,5-a]pyrimidine-6-carboxamide]
- Dmax (G2019S LRRK2): < 50%
- DC50 (G2019S LRRK2): 0.01 to 0.05 µM
- DC50 (wildtype LRRK2): ≥ 0.1 µM

SMILES: CC1=C(C(=O)Nc2ccc3[nH]nc(-c4ccnc(N5CCN(CCN6CCN(CC7CCN(c8ccc9c(c8)C(=O)N(C8CCC(=O)NC8=O)C9=O)CC7)CC6)CC5)c4)c3c2)C(C)(C)n2nnnc2N1C (centres unmarked) [compound 35, N-{3-[2-(4-{2-[4-({1-[2-(2,6-dioxopiperidin-3-yl)-1,3-dioxo-2,3-dihydro-1H-isoindol-5-yl]piperidin-4-yl}methyl)piperazin-1-yl]ethyl}piperazin-1-yl)pyridin-4-yl]-1H-indazol-5-yl}-4,5,7,7-tetramethyl-4H,7H-[1,2,3,4]tetrazolo[1,5-a]pyrimidine-6-carboxamide]
- Dmax (G2019S LRRK2): < 50%
- DC50 (G2019S LRRK2): 0.01 to 0.05 µM
- DC50 (wildtype LRRK2): ≥ 0.1 µM

SMILES: CC1=C(C(=O)Nc2ccc3[nH]nc(-c4ccnc(N5CCN(CCN6CCC(CN7CCN(c8ccc9c(c8)C(=O)N(C8CCC(=O)NC8=O)C9=O)CC7)CC6)[C@@H](C)C5)c4)c3c2)C(C)(C)n2nnnc2N1C (stereo partly drawn) [compound 36, N-(3-{2-[(3S)-4-{2-[4-({4-[2-(2,6-dioxopiperidin-3-yl)-1,3-dioxo-2,3-dihydro-1H-isoindol-5-yl]piperazin-1-yl}methyl)piperidin-1-yl]ethyl}-3-methylpiperazin-1-yl]pyridin-4-yl}-1H-indazol-5-yl)-4,5,7,7-tetramethyl-4H,7H-[1,2,3,4]tetrazolo[1,5-a]pyrimidine-6-carboxamide]
- Dmax (G2019S LRRK2): < 50%
- DC50 (G2019S LRRK2): ≥ 0.1 µM
- DC50 (wildtype LRRK2): ≥ 0.1 µM
